From patent US9802941B2, “Compounds and methods for inhibiting histone demethylases” (Gilead Sciences, Inc., priority 2014, dated 2017)
Where two headings read alike, the source gives them in different places.

Assays:
Type in all cases: biochemical
KDM4C (JMJD2C) = biological target: T1, KDM4C (JMJD2C) (Homo sapiens, UniProt Q9H3R0); assay: Histone lysine demethylase AlphaLISA assay, KDM4C
T1 construct: KDM4C; BRIC, Denmark; 1-349; E. coli; host or cells: E. coli
T1 sequence (Q9H3R0 1-349): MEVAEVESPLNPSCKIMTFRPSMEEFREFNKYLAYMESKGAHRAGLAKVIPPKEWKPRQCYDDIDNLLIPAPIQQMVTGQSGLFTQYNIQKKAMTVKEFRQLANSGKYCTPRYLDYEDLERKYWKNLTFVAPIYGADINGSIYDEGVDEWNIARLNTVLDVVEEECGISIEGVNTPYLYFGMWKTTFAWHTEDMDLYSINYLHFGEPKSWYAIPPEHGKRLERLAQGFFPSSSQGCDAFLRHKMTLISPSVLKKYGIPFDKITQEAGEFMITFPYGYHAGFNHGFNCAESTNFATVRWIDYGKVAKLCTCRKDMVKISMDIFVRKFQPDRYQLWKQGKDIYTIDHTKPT
Summary of the method: (§1)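 In vitro demethylase inhibition measured by AlphaLISA. Enzymes preincubated with compound 10 minutes in 50 mM Hepes (pH 7.4-8.0), 0.003-0.01% Tween-20, 0.1% BSA, 5 μM (NH4)2Fe(SO4)2 before substrate addition at room temperature.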

KDM2B (FBXL10) = biological target: T2, KDM2B (FBXL10) (Homo sapiens, UniProt Q8NHM5); assay: Histone lysine demethylase AlphaLISA assay, KDM2B
T2 construct: KDM2B; BPS,; 1-650; Bac; purchased BPS Bioscience, US; host or cells: baculovirus system
T2 sequence (Q8NHM5 1-650): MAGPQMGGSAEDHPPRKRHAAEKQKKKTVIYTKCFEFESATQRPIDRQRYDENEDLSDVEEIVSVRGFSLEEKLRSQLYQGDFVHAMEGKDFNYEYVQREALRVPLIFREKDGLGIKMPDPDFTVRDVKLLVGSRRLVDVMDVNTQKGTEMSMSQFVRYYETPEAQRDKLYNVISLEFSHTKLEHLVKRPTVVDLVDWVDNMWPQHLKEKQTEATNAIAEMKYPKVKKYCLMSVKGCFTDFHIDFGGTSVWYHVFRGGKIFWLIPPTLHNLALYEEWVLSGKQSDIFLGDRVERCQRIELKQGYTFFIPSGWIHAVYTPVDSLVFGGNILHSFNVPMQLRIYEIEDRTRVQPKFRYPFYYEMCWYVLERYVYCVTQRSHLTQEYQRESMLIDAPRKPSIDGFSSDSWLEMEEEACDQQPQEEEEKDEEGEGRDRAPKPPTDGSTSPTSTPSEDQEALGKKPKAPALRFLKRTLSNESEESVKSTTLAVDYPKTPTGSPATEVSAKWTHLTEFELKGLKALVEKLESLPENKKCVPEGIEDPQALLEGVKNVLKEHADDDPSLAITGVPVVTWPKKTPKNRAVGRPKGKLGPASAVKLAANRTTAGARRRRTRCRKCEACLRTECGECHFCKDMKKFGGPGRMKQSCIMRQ
Summary of the method: as §1

PHF8 (KDM7) = biological target: T3, PHF8 (KDM7) (Homo sapiens, UniProt Q9UPP1); assay: Histone lysine demethylase AlphaLISA assay, PHF8
T3 construct: KDM7 (PHF8); BRIC; 1-1322; Bac
Summary of the method: as §1

KDM5B (PLU-1) = biological target: T4, KDM5B (PLU-1) (Homo sapiens, UniProt Q9UGL1); assay: Histone lysine demethylase AlphaLISA assay, KDM5B
T4 construct: BRIC; 1-809; E. coli; host or cells: E. coli
T4 sequence (Q9UGL1 1-809): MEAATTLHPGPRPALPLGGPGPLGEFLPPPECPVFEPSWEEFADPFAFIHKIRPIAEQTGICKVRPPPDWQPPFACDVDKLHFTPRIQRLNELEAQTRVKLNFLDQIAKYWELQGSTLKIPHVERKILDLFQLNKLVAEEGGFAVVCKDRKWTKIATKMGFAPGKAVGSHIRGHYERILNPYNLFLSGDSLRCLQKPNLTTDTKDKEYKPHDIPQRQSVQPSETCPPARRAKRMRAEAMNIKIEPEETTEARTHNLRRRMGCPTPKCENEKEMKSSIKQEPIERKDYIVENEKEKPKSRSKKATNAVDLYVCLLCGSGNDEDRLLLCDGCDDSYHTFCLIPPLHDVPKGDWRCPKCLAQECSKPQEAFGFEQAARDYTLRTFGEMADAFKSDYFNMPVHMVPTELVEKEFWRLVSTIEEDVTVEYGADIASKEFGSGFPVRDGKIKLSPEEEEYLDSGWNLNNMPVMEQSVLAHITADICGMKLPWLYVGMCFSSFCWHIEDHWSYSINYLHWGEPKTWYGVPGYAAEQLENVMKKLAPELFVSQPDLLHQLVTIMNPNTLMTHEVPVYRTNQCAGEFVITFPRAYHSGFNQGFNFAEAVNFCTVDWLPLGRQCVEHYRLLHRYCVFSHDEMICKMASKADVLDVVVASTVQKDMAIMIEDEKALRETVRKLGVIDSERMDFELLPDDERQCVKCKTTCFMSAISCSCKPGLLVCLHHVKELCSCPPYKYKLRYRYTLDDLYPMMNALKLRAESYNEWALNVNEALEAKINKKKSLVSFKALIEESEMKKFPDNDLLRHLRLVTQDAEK
Summary of the method: as §1

[1] = AlphaLISA assay, read-out: HDME Inhibition KDM4C (IC50)
[2] = AlphaLISA, in vitro, read-out: HDME Inhibition KDM4C
[3] = AlphaLISA, in vitro, read-out: HDME Inhibition KDM2B
[4] = AlphaLISA, in vitro, read-out: HDME Inhibition PHF8
[5] = AlphaLISA assay, read-out: HDME Inhibition KDM5B (IC50)
[6] = AlphaLISA, in vitro, read-out: HDME Inhibition KDM5B
[7] = AlphaLISA assay, read-out: HDME Inhibition PHF8 (IC50)

Compound | IC50 (KDM4C (JMJD2C); [1]) [µM] | IC50 (KDM4C (JMJD2C); [2]) [µM] | IC50 (KDM2B (FBXL10); [3]) [µM] | IC50 (PHF8 (KDM7); [4]) [µM] | IC50 (KDM5B (PLU-1)) [µM] | IC50 (KDM5B (PLU-1); [5]) [µM] | IC50 (KDM5B (PLU-1); [6]) [µM] | IC50 (PHF8 (KDM7); [7]) [µM] | IC50 (KDM2B (FBXL10); AlphaLISA assay, read-out: HDME Inhibition KDM2B (IC50)) [µM]
C=CCn1ccnc1CNCc1cc(C(=O)O)cc(C)n1 [Compound 75, 2-methyl-6-[({[1-(prop-2-en-1-yl)-1H-imidazol-2-yl]methyl}amino)methyl]pyridine-4-carboxylic acid] | > 10 | > 10 | 0.587 | 1.27 | 0.431 |  |  |  | 
CCn1cnc2cc(Cn3cnnc3CNCc3cc(C(=O)O)cc(C)n3)ccc21 [Compound 41, 2-{[({4-[(1-ethyl-1H-1,3-benzodiazol-5-yl)methyl]-4H-1,2,4-triazol-3-yl}methyl)amino]methyl}-6-methylpyridine-4-carboxylic acid] | > 10 | > 10 | 1.66 | 6.56 |  | > 10 | > 10 |  | 
Cc1ccc(OCCC(C)C)c(CCNCc2cc(C(=O)O)cc(C)n2)c1 [Compound 89, 2-methyl-6-[({2-[5-methyl-2-(3-methylbutoxy)phenyl]ethyl}amino)methyl]pyridine-4-carboxylic acid] | > 10 | > 10 | 2.3 | > 10 |  | > 10 | > 10 | > 10 | 
Cc1cc(C(=O)O)cc(CNCc2ncc(CCC(N)=O)n2Cc2ccc(F)cc2)n1 [Compound 114, 2-[({[5-(2-carbamoylethyl)-1-[(4-fluorophenyl)methyl]-1H-imidazol-2-yl]methyl}amino)methyl]-6-methylpyridine-4-carboxylic acid] | > 10 | > 10 | 0.317 | 1.14 |  | > 10 | > 10 |  | 
Cc1cc(C(=O)O)cc(CNCc2nncn2CCc2cc(Cl)cc(Cl)c2)n1 [Compound 51, 2-{[({4-[2-(3,5-dichlorophenyl)ethyl]-4H-1,2,4-triazol-3-yl}methyl)amino]methyl}-6-methylpyridine-4-carboxylic acid] | > 10 | > 10 | 2.83 | 3.88 |  | > 10 | > 10 |  | 
CCc1nnc(CNCc2cc(C(=O)O)cc(CO)n2)n1CCCc1ccccc1 [Compound 69, 2-[({[5-ethyl-4-(3-phenylpropyl)-4H-1,2,4-triazol-3-yl]methyl}amino)methyl]-6-(hydroxymethyl)pyridine-4-carboxylic acid] | > 10 | > 10 | 0.027 | 0.662 |  | > 10 | > 10 |  | 
O=C(O)c1cc(CO)nc(CNCc2nncn2CCCc2ccccc2)c1 [Compound 78, 2-(hydroxymethyl)-6-[({[4-(3-phenylpropyl)-4H-1,2,4-triazol-3-yl]methyl}amino)methyl]pyridine-4-carboxylic acid] | > 10 | > 10 | 0.34 | 1.14 | 0.641 |  |  |  | 
NCc1cc(C(=O)O)cc(CN)n1 [Compound 110, 2,6-bis(aminomethyl)pyridine-4-carboxylic acid] | > 10 | > 10 | > 10 | > 10 |  | > 10 | > 10 | > 10 | > 10
Cc1nnc(CNCc2cc(C(=O)O)cc(CO)n2)n1CCCC(C)C [Compound 70, 2-(hydroxymethyl)-6-[({[5-methyl-4-(4-methylpentyl)-4H-1,2,4-triazol-3-yl]methyl}amino)methyl]pyridine-4-carboxylic acid] | > 10 | > 10 | 0.485 | 1.75 | 0.559 |  |  |  | 
COc1ccc(OCc2ccccc2)c(CNCc2cc(C(=O)O)cc(CO)n2)n1 [Compound 93, 2-[({[3-(Benzyloxy)-6-methoxypyridin-2-yl]methyl}amino)methyl]-6-(hydroxymethyl)pyridine-4-carboxylic acid] | > 10 | > 10 | 0.032 | 1.48 |  | > 10 | > 10 |  | 
Cc1cc(C(=O)O)cc(CNCc2nccn2CCc2ccccc2)n1 [Compound 61, 2-methyl-6-[({[1-(2-phenylethyl)-1H-imidazol-2-yl]methyl}amino)methyl]pyridine-4-carboxylic acid] | > 10 | > 10 | 4.18 | 2.55 |  | > 10 | > 10 |  | 
CCc1cnc(CNCc2cc(C(=O)O)cc(C)n2)n1Cc1cccs1 [Compound 115, 2-[({[5-ethyl-1-(thiophen-2-ylmethyl)-1H-imidazol-2-yl]methyl}amino)methyl]-6-methylpyridine-4-carboxylic acid] | > 10 | > 10 | 0.053 | 0.506 |  | > 10 | > 10 |  | 
Cc1nnc(CNCc2cc(C(=O)O)cc(CO)n2)n1CCCc1ccccc1 [Compound 65, 2-(hydroxymethyl)-6-[({[5-methyl-4-(3-phenylpropyl)-4H-1,2,4-triazol-3-yl]methyl}amino)methyl]pyridine-4-carboxylic acid] | > 10 | > 10 | 0.034 | 1.01 | 0.151 |  |  |  | 
CCc1cnc(CNCc2cc(C(=O)O)cc(C)n2)n1CCCc1ccccc1 [Compound 108, 2-[({[5-ethyl-1-(3-phenylpropyl)-1H-imidazol-2-yl]methyl}amino)methyl]-6-methylpyridine-4-carboxylic acid] | > 10 | > 10 | 0.133 | 0.861 |  | > 10 | > 10 |  | 
